The source of these data is patent US8735414B2 (priority 2009, dated 2014).

The subject of this experiment is bicistronic HCV replicon (replicon RNA, GenBank Accession No. AJ242654). The experiment can be described thus: HCV Replicon Assay. Format: cell-based. The conditions noted are these: Hepatitis C virus, 72 h, read-out: Replicon IC50. (In antiviral work, replicon cells carry a viral genome segment that copies itself.)

What is called IC50 is the concentration that inhibits the measured activity by half. Consider `CC(C)(C)NS(=O)(=O)c1ccc(-c2c(C#N)c3cc(F)ccc3n2-c2ncccn2)nc1` [compound 823, N-tert-butyl-6-[3-cyano-5-fluoro-1-(pyrimidin-2-yl)-1H-indol-2-yl]pyridine-3-sulfonamide], for which the IC50 lay within 0.5 to 2 µM.

With `Cc1cc2c(cc1F)c(C#N)c(-c1ccc(S(=O)(=O)NC(C)(C)C)cn1)n2-c1ncccn1` [compound 824, N-tert-butyl-6-[3-cyano-5-fluoro-6-methyl-1-(pyrimidin-2-yl)-1H-indol-2-yl]pyridine-3-sulfonamide], the IC50 was under 0.5 µM.

For the molecule `C[C@H](NS(=O)(=O)c1ccc(-c2c(C(N)=O)c3cc(F)c(C4CC4)cc3n2C2CCCC2)nc1)C(F)(F)F` [compound 838, 1-cyclopentyl-6-cyclopropyl-5-fluoro-2-(5-{[(2S)-1,1,1-trifluoropropan-2-yl]sulfamoyl}pyridin-2-yl)-1H-indole-3-carboxamide], the IC50 was under 0.5 µM.

For `Cc1ccc2c(c1)c(C(N)=O)c(-c1ccc(S(=O)(=O)N[C@@H](C)C(F)(F)F)cn1)n2-c1ncccn1` [compound 846, 5-methyl-1-(pyrimidin-2-yl)-2-(5-{[(2S)-1,1,1-trifluoropropan-2-yl]sulfamoyl}pyridin-2-yl)-1H-indole-3-carboxamide], the IC50 was under 0.5 µM.

For the molecule `Cc1cc2c(cc1F)c(C#N)c(-c1cc(C)c(S(=O)(=O)N[C@@H](C)C(F)(F)F)cn1)n2-c1ncccn1` [compound 853, 6-[3-cyano-5-fluoro-6-methyl-1-(pyrimidin-2-yl)-1H-indol-2-yl]-4-methyl-N-[(2S)-1,1,1-trifluoropropan-2-yl]pyridine-3-sulfonamide], the IC50 was under 0.5 µM.

Consider `Cc1cc2c(cc1F)c(C#N)c(-c1cc(C)c(S(=O)(=O)N[C@@H](C)C(F)(F)F)cn1)n2-c1ccccn1` [compound 854, 6-[3-cyano-5-fluoro-6-methyl-1-(pyridin-2-yl)-1H-indol-2-yl]-4-methyl-N-[(2S)-1,1,1-trifluoropropan-2-yl]pyridine-3-sulfonamide], for which the IC50 was under 0.5 µM.

`Cc1cc2c(cc1F)c(C#N)c(-c1ccc(S(=O)(=O)NC3(C(F)(F)F)CC3)cn1)n2C1CCCCC1` [compound 856, 6-(3-cyano-1-cyclohexyl-5-fluoro-6-methyl-1H-indol-2-yl)-N-[1-(trifluoromethyl)cyclopropyl]pyridine-3-sulfonamide]: the IC50 was under 0.5 µM.

For `CCc1cc2c(cc1F)c(C#N)c(-c1ccc(S(=O)(=O)NC(C)(C)C(F)(F)F)cn1)n2-c1ncccn1` [compound 859, 6-[3-cyano-6-ethyl-5-fluoro-1-(pyrimidin-2-yl)-1H-indol-2-yl]-N-(1,1,1-trifluoro-2-methylpropan-2-yl)pyridine-3-sulfonamide], the IC50 lay within 0.5 to 2 µM.

On to `CC(C)(NS(=O)(=O)c1ccc(-c2c(C#N)c3cc(F)c(OC(F)F)cc3n2C2CCCC2)nc1)C(F)(F)F` [compound 862, 6-[3-cyano-1-cyclopentyl-6-(difluoromethoxy)-5-fluoro-1H-indol-2-yl]-N-(1,1,1-trifluoro-2-methylpropan-2-yl)pyridine-3-sulfonamide], for which the IC50 was under 0.5 µM.

For the molecule `CCc1cc2c(cc1F)c(C#N)c(-c1ccc(S(=O)(=O)NC3(C(F)(F)F)CC3)cn1)n2-c1ncccn1` [compound 864, 6-[3-cyano-6-ethyl-5-fluoro-1-(pyrimidin-2-yl)-1H-indol-2-yl]-N-[1-(trifluoromethyl)cyclopropyl]pyridine-3-sulfonamide], the IC50 was under 0.5 µM.

As for `Cc1cnc(-n2c(-c3ccc(S(=O)(=O)N[C@@H](C)C(F)(F)F)cn3)c(C#N)c3cc(F)c(C)cc32)cn1` [compound 865, 6-[3-cyano-5-fluoro-6-methyl-1-(5-methylpyrazin-2-yl)-1H-indol-2-yl]-N-[(2S)-1,1,1-trifluoropropan-2-yl]pyridine-3-sulfonamide], the IC50 was under 0.5 µM.

`COc1ccnc(-n2c(-c3ccc(S(=O)(=O)N[C@@H](C)C(F)(F)F)cn3)c(C#N)c3cc(F)c(C)cc32)n1` [compound 866, 6-[3-cyano-5-fluoro-1-(4-methoxypyrimidin-2-yl)-6-methyl-1H-indol-2-yl]-N-[(2S)-1,1,1-trifluoropropan-2-yl]pyridine-3-sulfonamide]: the IC50 lay in the range of 0.5 to 2 µM.

Regarding `Cc1ccnc(-n2c(-c3ccc(S(=O)(=O)N[C@@H](C)C(F)(F)F)cn3)c(C#N)c3cc(F)c(C)cc32)n1` [compound 873, 6-[3-cyano-5-fluoro-6-methyl-1-(4-methylpyrimidin-2-yl)-1H-indol-2-yl]-N-[(2S)-1,1,1-trifluoropropan-2-yl]pyridine-3-sulfonamide], the IC50 is under 0.5 µM.

In the case of `CCc1cc2c(cc1F)c(C#N)c(-c1ccc(S(=O)(=O)N[C@H](C)C(F)(F)F)cn1)n2-c1ncccn1` [compound 878, 6-[3-cyano-6-ethyl-5-fluoro-1-(pyrimidin-2-yl)-1H-indol-2-yl]-N-[(2R)-1,1,1-trifluoropropan-2-yl]pyridine-3-sulfonamide], the IC50 was under 0.5 µM.

On to `CCc1cc2c(cc1F)c(C#N)c(-c1ccc(S(=O)(=O)N[C@H](C)C(F)(F)F)cn1)n2-c1ccccn1` [compound 879, 6-[3-cyano-6-ethyl-5-fluoro-1-(pyridin-2-yl)-1H-indol-2-yl]-N-[(2R)-1,1,1-trifluoropropan-2-yl]pyridine-3-sulfonamide], for which the IC50 was under 0.5 µM.

`CCc1cc2c(cc1F)c(C(N)=O)c(-c1ccc(S(=O)(=O)NC(C)(C)C)cn1)n2-c1ccccn1` [compound 883, 2-(5-(N-tert-butylsulfamoyl)pyridin-2-yl)-6-ethyl-5-fluoro-1-(pyridin-2-yl)-1H-indole-3-carboxamide]: the 50% inhibitory concentration (IC50) is under 0.5 µM.

Turning to `C=Cc1cc2c(cc1F)c(C#N)c(-c1ccc(S(=O)(=O)N[C@@H](C)C(F)(F)F)cn1)n2-c1ncccn1` [compound 908, 6-[3-cyano-6-ethenyl-5-fluoro-1-(pyrimidin-2-yl)-1H-indol-2-yl]-N-[(2S)-1,1,1-trifluoropropan-2-yl]pyridine-3-sulfonamide], the IC50 is under 0.5 µM.

In the case of `CCc1cc2c(cc1F)c(C(N)=O)c(-c1ccc(S(=O)(=O)N[C@@H](C)C(F)(F)F)cn1)n2-c1ccccn1` [compound 909, 6-ethyl-5-fluoro-1-(pyridin-2-yl)-2-(5-{[(2S)-1,1,1-trifluoropropan-2-yl]sulfamoyl}pyridin-2-yl)-1H-indole-3-carboxamide], the IC50 was in the range of 0.5 to 2 µM.

Turning to `CCc1cc2c(cc1F)c(C#N)c(-c1ccc(S(=O)(=O)N[C@@H](C)C(F)(F)F)cn1)n2C1CC1` [compound 910, 6-(3-cyano-1-cyclopropyl-6-ethyl-5-fluoro-1H-indol-2-yl)-N-[(2S)-1,1,1-trifluoropropan-2-yl]pyridine-3-sulfonamide], the IC50 was under 0.5 µM.

For the molecule `CC(O)c1cc2c(cc1F)c(C#N)c(-c1ccc(S(=O)(=O)N[C@@H](C)C(F)(F)F)cn1)n2-c1ncccn1` (stereo partly drawn) [compound 911, 6-[3-cyano-5-fluoro-6-(1-hydroxyethyl)-1-(pyrimidin-2-yl)-1H-indol-2-yl]-N-[(2S)-1,1,1-trifluoropropan-2-yl]pyridine-3-sulfonamide], the IC50 is under 0.5 µM.

Take `Cc1cc2c(cc1F)c(C#N)c(-c1ccc(S(=O)(=O)N[C@@H](C)C(F)(F)F)cn1)n2-c1ncc(F)cn1` [compound 924, 6-[3-cyano-5-fluoro-1-(5-fluoropyrimidin-2-yl)-6-methyl-1H-indol-2-yl]-N-[(2S)-1,1,1-trifluoropropan-2-yl]pyridine-3-sulfonamide]: the IC50 is under 0.5 µM.
